# The supplement of paper PMC10307832
# Columns and labels:
# Test in all cases: relative viability (nuclei count vs DMSO), 5 days (fraction); higher = more cells survive
# [1] = compound: Cc1ccc(C(=O)Nc2ccc(CN3CCN(C)CC3)c(C(F)(F)F)c2)cc1C#Cc1cnc2cccnn12 [Ponatinib] + CC(=O)Nc1cccc(-n2c(=O)n(C3CC3)c(=O)c3c(Nc4ccc(I)cc4F)n(C)c(=O)c(C)c32)c1 [Trametinib] (partner 0.02 µM)
# Procedure, shortened: (§1)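 Relative viability divides the nuclei count in treated wells by that in vehicle wells. Lung cancer cell lines were seeded in 1536-well plates, dosed by pin tool the next day, and fixed and stained after 5 days in one step with final 0.05% Triton X-100, 1% formaldehyde and 1 ug/ml Hoechst. Dosing was a single drug or a fixed anchor-drug dose plus five library-drug doses (not always all listed) in √10 steps, and values are medians of duplicate plates imaged at 4×.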
# [2] = compound: Cc1ccc(Nc2nccc(N(C)c3ccc4c(C)n(C)nc4c3)n2)cc1S(N)(=O)=O [Pazopanib] + O=C(CCCCCCC(=O)Nc1ccccc1)NO [Vorinostat] (partner 1 µM)
# Procedure, shortened: as §1
# [3] = compound: Cc1ccc(C(=O)Nc2ccc(CN3CCN(C)CC3)c(C(F)(F)F)c2)cc1C#Cc1cnc2cccnn12 [Ponatinib] + N=C(N)NC(=N)NCCc1ccccc1 [Phenformin] (partner 250 µM)
# Procedure, shortened: as §1
# [4] = compound: Cc1ccc(Nc2nccc(N(C)c3ccc4c(C)n(C)nc4c3)n2)cc1S(N)(=O)=O [Pazopanib] + CC(C)C[C@H](NC(=O)[C@H](Cc1ccccc1)NC(=O)c1cnccn1)B(O)O [Bortezomib] (partner 0.002 µM)
# Procedure, shortened: as §1
Cell Line,relative viability ([1]; first compound 0.002 µM),relative viability ([1]; first compound 0.006325 µM),relative viability ([1]; first compound 0.06325 µM),relative viability ([1]; first compound 0.2 µM),relative viability ([2]; first compound 0.01 µM),relative viability ([2]; first compound 0.03162 µM),relative viability ([2]; first compound 0.1 µM),relative viability ([2]; first compound 0.3162 µM),relative viability ([2]; first compound 1 µM),relative viability ([3]; first compound 0.002 µM),relative viability ([3]; first compound 0.006325 µM),relative viability ([3]; first compound 0.06325 µM),relative viability ([3]; first compound 0.2 µM),relative viability ([4]; first compound 0.01 µM),relative viability ([4]; first compound 0.03162 µM),relative viability ([4]; first compound 0.1 µM),relative viability ([4]; first compound 0.3162 µM),relative viability ([4]; first compound 1 µM)
NCI-H1755,0.755,0.841,0.761,0.763,0.65,0.744,0.876,0.812,0.75,0.561,0.599,0.614,0.565,0.883,0.973,0.966,0.928,1.04
NCI-H1915,0.303,0.321,0.288,0.24,0.385,0.481,0.513,0.525,0.455,0.332,0.363,0.371,0.356,0.936,0.963,0.983,0.972,0.884
NCI-H1975,0.367,0.445,0.469,0.294,0.712,0.76,0.805,0.723,0.754,0.365,0.395,0.439,0.398,0.356,0.346,0.461,0.464,0.448
NCI-H1993,0.539,0.506,0.64,0.572,–,0.851,0.832,0.741,0.763,0.57,0.512,0.532,0.508,0.758,1.02,1.02,1.2,1.28
NCI-H2009,0.284,0.253,0.189,0.165,0.72,0.744,0.757,0.692,0.765,0.426,0.432,0.522,0.467,0.892,1.11,0.876,0.955,0.906
NCI-H2023,0.555,0.625,0.64,0.523,0.551,0.712,0.745,0.637,0.827,0.397,0.416,0.425,0.315,0.719,0.945,0.877,0.964,1.42
NCI-H2085,0.482,0.557,0.675,0.568,0.674,0.849,0.758,0.838,0.86,0.649,0.708,0.682,0.641,1.04,1.09,1.01,1.02,1.13
NCI-H2087,0.217,0.201,0.131,0.153,0.945,0.642,0.704,0.733,0.317,0.517,0.471,0.493,0.439,0.979,0.909,0.804,0.798,0.879
NCI-H2126,0.564,0.576,0.691,0.578,0.588,0.747,0.76,0.822,0.732,0.509,0.544,0.558,0.543,1.05,1.14,1.11,1.07,1.09
NCI-H2228,0.546,0.656,0.495,0.547,1.12,1.01,0.706,0.59,0.619,0.356,0.356,0.342,0.357,0.954,1.07,0.866,0.926,0.834
NCI-H2347,0.241,0.272,0.332,0.264,0.522,0.593,0.736,0.587,0.83,0.34,0.393,0.38,0.34,–,–,1.23,0.95,0.997
NCI-H2405,0.557,0.611,0.435,0.342,0.925,1.16,0.93,1.11,1.16,0.359,0.44,0.386,0.329,0.925,0.981,0.997,0.982,0.982
NCI-H3122,0.256,0.199,0.241,0.209,0.794,0.926,0.89,1.02,1.05,0.301,0.378,0.384,0.356,1.04,0.985,0.917,1.02,1.1
PC-3 [JPC-3],–,0.769,0.88,0.699,–,0.79,0.597,0.973,0.93,0.461,0.502,0.502,0.477,0.957,0.948,0.814,0.868,0.774
PC-14,0.701,0.727,0.859,0.794,0.81,0.87,0.669,0.786,0.751,0.443,0.619,0.665,0.605,0.976,0.805,1.16,0.858,0.856
RERF-LC-KJ,0.826,0.803,1.03,0.852,0.63,0.79,0.622,0.601,0.596,0.41,0.417,0.482,0.426,1.03,1.05,1.05,1.16,1.04
SK-LU-1,0.469,0.554,0.393,0.347,0.756,0.852,0.755,0.621,0.861,0.445,0.469,0.475,0.328,1.15,1.08,1.23,1.37,1.27
SW 1573,0.6,0.595,0.591,0.577,0.641,0.692,0.648,0.992,0.525,0.35,0.392,0.292,0.405,0.945,1.14,1.08,1.09,1.17
